Measured values reported in ChEMBL document CHEMBL5331078, “1-Benzyloxy-5-phenyltetrazole derivatives highly active against androgen receptor-dependent prostate cancer cells” (Eur J Med Chem, 2023).
The source made the active and inactive calls. The calls are words filed in the database; no cut-off is given here.

What was measured:
[1] = tested on: CWR22R; experiment: Antiproliferative activity against AR-v7 positive human 22Rv1 cells measured after 3 days by celltiter-glo luminescence assay; type: functional, cell-based; conditions: Homo sapiens, 22Rv1, 72 h; read-out: IC50
[2] = tested on: PC-3; experiment: Antiproliferative activity against human PC-3 cells measured after 3 days by celltiter-glo luminescence assay; type: functional, cell-based; conditions: PC-3, 72 h
[3] = C0 in rat at 5 mg/kg, iv measured upto 24 hrs by LC-MS/MS analysis; type: ADME, organism-based; conditions: in vivo
[4] = Elimination rate constant in rat at 5 mg/kg, iv measured upto 24 hrs by LC-MS/MS analysis; type: ADME, organism-based; conditions: in vivo
[5] = Half life in rat at 5 mg/kg, iv measured upto 24 hrs by LC-MS/MS analysis; type: ADME, organism-based; conditions: in vivo
[6] = MRT (0 to infinity) in rat at 5 mg/kg, iv measured upto 24 hrs by LC-MS/MS analysis; type: ADME, organism-based; conditions: in vivo
[7] = MRT (0 to t) in rat at 5 mg/kg, iv measured upto 24 hrs by LC-MS/MS analysis; type: ADME, organism-based; conditions: in vivo
[8] = AUC (0 to t) in rat at 5 mg/kg, iv measured upto 24 hrs by LC-MS/MS analysis; type: ADME, organism-based; set-up: dose 5 mg/kg, time < 24 hrs, route iv; conditions: in vivo
[9] = AUC (0 to infinity) in rat at 5 mg/kg, iv measured upto 24 hrs by LC-MS/MS analysis; type: ADME, organism-based; set-up: time < 24 hrs, dose 5 mg/kg, route iv; conditions: in vivo
[10] = tested on: CWR22R; experiment: Antitumor activity against human 22Rv1 cells xenografted in NOD-SCID mouse assessed as inhibition of tumor growth at 10 mg/kg/day, ip measured upto 20 days; type: functional, organism-based; conditions: time <= 20.0 day
[11] = Toxicity in NOD-SCID mouse assessed as effect on body weight loss at 10 mg/kg/day, ip measured upto 20 days; type: organism-based; conditions: in vivo, 480 h, time < 20 day
[12] = Partition coefficient, logD of the compound at pH 7.4 by HPLC analysis; type: physicochemical; conditions: octanol/water
[13] = Kinetic solubility of the compound in phosphate buffer at pH 6.5 after 30 mins by nephelometry; type: physicochemical; conditions: read-out: Kinetic_solubility
[14] = Metabolic stability in mouse liver microsomes assessed as half life incubated for 60 mins in presence of NADPH-regenerating system; type: ADME, Microsome; conditions: liver microsomes
[15] = Metabolic stability in mouse liver microsomes assessed as intrinsic clearance incubated for 60 mins in presence of NADPH-regenerating system; type: ADME, Microsome; conditions: liver microsomes, read-out: CLH
[16] = tested on: CWR22R; experiment: Downregulation of AR-v7 level in human 22Rv1 cells measured for 24 to 36 hrs by Western blot analysis; type: functional, cell-based; conditions: dose 0.5-10 µM, time 24-36 hrs
[17] = tested on: CWR22R; experiment: Downregulation of AR-v7 level in human 22Rv1 cells at 0.5 to 10 uM by Western blot analysis; type: functional, cell-based; conditions: dose 0.5-10 µM, time 24-36 hrs, TDE = time-dependent effect
[18] = tested on: CWR22R; experiment: Downregulation of AR-v7 level in human 22Rv1 cells at 0.5 to 10 uM measured after 36 hrs by Western blot analysis; type: functional, cell-based; conditions: dose 0.5-10 µM
[19] = tested on: CWR22R; experiment: Downregulation of Androgen receptor level in human 22Rv1 cells at 0.5 to 10 uM measured after 36 hrs by Western blot analysis; type: functional, cell-based; conditions: dose 0.5-10 µM
[20] = tested on: CWR22R; experiment: Downregulation of AR genes expression in human 22Rv1 cells at 1 uM measured after 24 to 36 hrs by RNA sequencing analysis; type: functional, cell-based; conditions: time 24-36 hrs
[21] = tested on: CWR22R; experiment: Downregulation of CDC6 gene expression in human 22Rv1 cells at 1 uM measured after 24 to 36 hrs by RNA sequencing analysis; type: functional, cell-based; conditions: time 24-36 hrs
[22] = tested on: CWR22R; experiment: Downregulation of CDC25A gene expression in human 22Rv1 cells at 1 uM measured after 24 to 36 hrs by RNA sequencing analysis; type: functional, cell-based; conditions: time 24-36 hrs
[23] = tested on: CWR22R; experiment: Downregulation of GREB1L gene expression in human 22Rv1 cells at 1 uM measured after 24 to 36 hrs by RNA sequencing analysis; type: functional, cell-based; conditions: time 24-36 hrs
[24] = tested on: CWR22R; experiment: Downregulation of E2F gene expression in human 22Rv1 cells at 1 uM measured after 24 to 36 hrs by RNA sequencing analysis; type: functional, cell-based; conditions: time 24-36 hrs
[25] = tested on: CWR22R; experiment: Downregulation of GRB10 gene expression in human 22Rv1 cells at 1 uM measured after 24 to 36 hrs by RNA sequencing analysis; type: functional, cell-based; conditions: time 24-36 hrs
[26] = tested on: CWR22R; experiment: Downregulation of DDC gene expression in human 22Rv1 cells at 1 uM measured after 24 to 36 hrs by RNA sequencing analysis; type: functional, cell-based; conditions: time 24-36 hrs
[27] = tested on: CWR22R; experiment: Downregulation of SKP2 gene expression in human 22Rv1 cells at 1 uM measured after 24 to 36 hrs by RNA sequencing analysis; type: functional, cell-based; conditions: time 24-36 hrs
[28] = tested on: CWR22R; experiment: Downregulation of FEN1 gene expression in human 22Rv1 cells at 1 uM measured after 24 to 36 hrs by RNA sequencing analysis; type: functional, cell-based; conditions: time 24-36 hrs
[29] = tested on: CWR22R; experiment: Downregulation of MCM10 gene expression in human 22Rv1 cells at 1 uM measured after 24 to 36 hrs by RNA sequencing analysis; type: functional, cell-based; conditions: time 24-36 hrs
[30] = tested on: CWR22R; experiment: Downregulation of GINS1 gene expression in human 22Rv1 cells at 1 uM measured after 24 to 36 hrs by RNA sequencing analysis; type: functional, cell-based; conditions: time 24-36 hrs
[31] = tested on: CWR22R; experiment: Downregulation of CDC7 gene expression in human 22Rv1 cells at 1 uM measured after 24 to 36 hrs by RNA sequencing analysis; type: functional, cell-based; conditions: time 24-36 hrs
[32] = tested on: CWR22R; experiment: Downregulation of PCNA gene expression in human 22Rv1 cells at 1 uM measured after 24 to 36 hrs by RNA sequencing analysis; type: functional, cell-based; conditions: time 24-36 hrs
[33] = tested on: CWR22R; experiment: Downregulation of E2F1 gene expression in human 22Rv1 cells at 1 uM measured after 24 to 36 hrs by RNA sequencing analysis; type: functional, cell-based; conditions: time 24-36 hrs
[34] = tested on: CWR22R; experiment: Downregulation of RRM2 gene expression in human 22Rv1 cells at 1 uM measured after 24 to 36 hrs by RNA sequencing analysis; type: functional, cell-based; conditions: time 24-36 hrs
[35] = tested on: CWR22R; experiment: Downregulation of MYB gene expression in human 22Rv1 cells at 1 uM measured after 24 to 36 hrs by RNA sequencing analysis; type: functional, cell-based; conditions: time 24-36 hrs
[36] = tested on: CWR22R; experiment: Downregulation of RAD51D gene expression in human 22Rv1 cells at 1 uM measured after 24 to 36 hrs by RNA sequencing analysis; type: functional, cell-based; conditions: time 24-36 hrs
[37] = tested on: CWR22R; experiment: Downregulation of CHEK1 gene expression in human 22Rv1 cells at 1 uM measured after 24 to 36 hrs by RNA sequencing analysis; type: functional, cell-based; conditions: time 24-36 hrs
[38] = tested on: CWR22R; experiment: Downregulation of BRCA1 gene expression in human 22Rv1 cells at 1 uM measured after 24 to 36 hrs by RNA sequencing analysis; type: functional, cell-based; conditions: time 24-36 hrs
[39] = tested on: CWR22R; experiment: Downregulation of MTBP gene expression in human 22Rv1 cells at 1 uM measured after 24 to 36 hrs by RNA sequencing analysis; type: functional, cell-based; conditions: time 24-36 hrs
[40] = tested on: CWR22R; experiment: Downregulation of MYC gene expression in human 22Rv1 cells at 1 uM measured after 24 to 36 hrs by RNA sequencing analysis; type: functional, cell-based; conditions: time 24-36 hrs
[41] = tested on: CWR22R; experiment: Downregulation of BRCA2 gene expression in human 22Rv1 cells at 1 uM measured after 24 to 36 hrs by RNA sequencing analysis; type: functional, cell-based; conditions: time 24-36 hrs
[42] = tested on: CWR22R; experiment: Downregulation of CDK2 gene expression in human 22Rv1 cells at 1 uM measured after 24 to 36 hrs by RNA sequencing analysis; type: functional, cell-based; conditions: time 24-36 hrs
[43] = tested on: CWR22R; experiment: Downregulation of DNMT1 gene expression in human 22Rv1 cells at 1 uM measured after 24 to 36 hrs by RNA sequencing analysis; type: functional, cell-based; conditions: time 24-36 hrs

With `Clc1ccc(COn2nnnc2-c2ccc(Cl)cc2)cc1` the IC50 [1] was 11 nM, the IC50 [2] was greater than 100000 nM and the C0 at 24 h [3] was 5480 ng/mL. It also gave a k el at 24 h [4] of 0.000292 s⁻¹, a half-life [5] of 55.1 min and an MRT inf [6] of 20.2 min. For the same compound, the MRT last at 24 h [7] was 16.3 min, the AUC(0-t) at 24 h [8] was 1080 ng·h/mL and the AUC(0-inf) [9] was 1100 ng·h/mL. For the same compound, the Activity [10] was “Active”, the Activity [11] was “Non-Toxic” and the logD [12] was 4.5. It also gave a solubility kinetic at 0.5 h [13] of less than 1.6 µg/mL, a half-life [14] of 21 min and a microsomal CLint [15] of 21 µL/min/mg. The Activity [16] was “Dose-Dependent Effect”, the Activity [17] was “Tde” and the Activity [18] was “Active”. For the same compound, the Activity [19] was “Active”, the Activity [20] was “Active” and the Activity [21] was “Active”. For the same compound, the Activity [22] was “Active”, the Activity [23] was “Active” and the Activity [24] was “Active”. For the same compound, the Activity [25] was “Active”, the Activity [26] was “Active” and the Activity [27] was “Active”. The Activity [28] was “Active”, the Activity [29] was “Active” and the Activity [30] was “Active”. For the same compound, the Activity [31] was “Active”, the Activity [32] was “Active” and the Activity [33] was “Active”. For the same compound, the Activity [34] was “Active”, the Activity [35] was “Active” and the Activity [36] was “Active”. For the same compound, the Activity [37] was “Active”, the Activity [38] was “Active” and the Activity [39] was “Active”. The Activity [40] was “Active”, the Activity [41] was “Active” and the Activity [42] was “Active”. The Activity [43] was “Active”.
